{
  "source": "patent US8440830B2",
  "about": "“Tetrahydro-fused pyridines as histone deacetylase inhibitors” (4SC AG, priority 2007, dated 2013)",
  "data": [
    {"system": "A549 NSCLC cells", "assay": "Cellular cytotoxicity assay (Alamar Blue), A549", "assay_type": "cell-based", "conditions": "Homo sapiens, 72 h, upper end given as ≧100, read-out: IC50 (μM), cytotoxicity towards A549 NSCLC cells", "experimental": "The anti-proliferative activity of the histone deacetylase inhibitory compounds as described herein, is evaluated using the following cell lines: HeLa and HeLa-KB (cervical carcinoma), H460 (non small cell lung cancer), A549 (non-small cell lung cancer), MCF7 (breast carcinoma), MCF10A (normal, non tumorigenic breast epithelial), MDA-MB468 (breast carcinoma), MDA-MB435 (breast carcinoma), MDA-MB231 (breast carcinoma), SKBR-3 (breast carcinoma), SKOV-3 (ovarial carcinoma), A-2780 (ovarial carcinoma), RKO (colon carcinoma), HCT-15 (colon carcinoma), HCT-116 (colon carcinoma), PC3 (prostate carcinoma), BPH1 (benign prostate hyperplasia), AsPC1 (pancreatic carcinoma), Ca127 (tongue carcinoma), A-431 (vulva carcinoma), Hec1A (endometrial carcinoma), Saos-2 (osteosarcoma), U87MG (glioblastoma), WM266-4 (melanoma), K562 (chronic myeloid leukemia), EOL1 (acute hypereosinophilic myeloid leukemia), CCRF-CEM and CCRF-CEM VCR1000 (acute lymphoblastic leukemia sensitive and resistant towards Vincristine). For quantification of cellular proliferation/living cells the Alamar Blue (Resazurin) cell viability assay is applied (O'Brien et al. Eur J Biochem 267, 5421-5426, 2000). In this assay Resazurin is reduced to the fluorescent resorufine by cellular dehydrogenase activity, correlating with viable, proliferating cells. The examples are dissolved as 20 mM solutions in dimethylsulfoxide (DMSO) and subsequently diluted in semi-logarithmic steps. Cell lines are seeded at respective density into 96 well flat bottom plates in a volume of 200 μl per well. 24 h after seeding 1 μl each of the compound dilutions are added into each well of the 96 well plate. Each compound dilution is tested as quadruplicates. Wells containing untreated control cells are filled with 200 μl DMEM medium containing 0.5% v:v DMSO. The cells are then incubated with the compounds for 72 h at 37° C. in a humidified atmosphere containing 5% carbon dioxide. To determine the viability of the cells, 20 μl of a Resazurin solution (Sigma; 90 mg/l) are added. After 4 h incubation at 37° C. the fluorescence is measured at an extinction of λ=544 nm and an emission of λ=590 nm. For the calculation of the cell viability the emission value from untreated cells is set as 100% viability and the emission rates of treated cells are set in relation to the values of untreated cells. Viabilities are expressed as % values. The corresponding IC50 values of the compounds for cytotoxic activity are determined from the concentration-effect curves by means of non-linear regression.", "units": {"IC50": "µM"}, "values": [
      {"smiles": "Nc1ccccc1NC(=O)c1nc2c(s1)CN(C(=O)OCc1ccccc1)CC2", "note": "[Example 188, Benzyl 2-[(2-aminophenyl)carbamoyl]-6,7-dihydro[1,3]thiazolo[5,4-c]pyridine-5(4H)-carboxylate]", "IC50": "≥ 0.2"},
      {"smiles": "Nc1ccccc1NC(=O)c1nc2c(s1)CN(C(=O)c1ccc3ccccc3c1)CC2", "note": "[Example 95, N-(2-aminophenyl)-5-(2-naphthoyl)-4,5,6,7-tetrahydro[1,3]thiazolo[5,4-c]-pyridine-2-carboxamide]", "IC50": "≥ 0.2"},
      {"smiles": "Nc1ccccc1NC(=O)c1nc2c(s1)CN(S(=O)(=O)c1cccc(F)c1)CC2", "note": "[Example 163, N-(2-aminophenyl)-5-[(3-fluorophenyl)sulfonyl]-4,5,6,7-tetrahydro[1,3]-thiazolo[5,4-c]pyridine-2-carboxamide]", "IC50": "≥ 0.2"},
      {"smiles": "CCCCNC(=O)C(=O)N1CCc2nc(C(=O)Nc3ccccc3N)sc2C1", "note": "[Example 79, N-(2-aminophenyl)-5-[(butylamino)(oxo)acetyl]-4,5,6,7-tetrahydro[1,3]thiazolo[5,4-c]pyridine-2-carboxamide]", "IC50": "≥ 0.2"},
      {"smiles": "Nc1ccccc1NC(=O)c1nc2c(s1)CN(C(=O)C(=O)NC1CCC(c3ccncc3)CC1)CC2", "note": "(centres unmarked) [Example 67, N-(2-aminophenyl)-5-{oxo[(4-pyridin-4-ylcyclohexyl)amino]acetyl}-4,5,6,7-tetrahydro[1,3]thiazolo[5,4-c]pyridine-2-carboxamide]", "IC50": "≥ 0.2"},
      {"smiles": "CCCCNC(=O)N1CCc2nc(C(=O)Nc3ccccc3N)sc2C1", "note": "[Example 40, N^2-(2-aminophenyl)-N^5-butyl-6,7-dihydro[1,3]thiazolo[5,4-c]pyridine-2,5(4H)-dicarboxamide]", "IC50": "≥ 0.2"},
      {"smiles": "COc1ccc(S(=O)(=O)N2CCc3nc(C(=O)Nc4cc(OC)ccc4N)sc3C2)cc1", "note": "[Example 171, N-(2-amino-5-methoxyphenyl)-5-[(4-methoxyphenyl)sulfonyl]-4,5,6,7-tetrahydro[1,3]thiazolo[5,4-c]pyridine-2-carboxamide]", "IC50": "≥ 0.2"},
      {"smiles": "Nc1ccccc1NC(=O)c1nc2c(s1)CN(C(=O)c1ccc(-c3ccccc3)cc1)CC2", "note": "[Example 88, N-(2-aminophenyl)-5-(biphenyl-4-ylcarbonyl)-4,5,6,7-tetrahydro[1,3]thiazolo[5,4-c]pyridine-2-carboxamide]", "IC50": "≥ 0.2"},
      {"smiles": "COc1ccc(NC(=O)N2CCc3nc(C(=O)Nc4cc(C(C)C)ccc4N)sc3C2)cc1", "note": "[Example 45, N^2-(2-amino-5-isopropylphenyl)-N^5-(4-methoxyphenyl)-6,7-dihydro[1,3]thiazolo[5,4-c]pyridine-2,5(4H)-dicarboxamide]", "IC50": "≥ 0.2"},
      {"smiles": "Nc1ccccc1NC(=O)c1nc2c(s1)CN(S(=O)(=O)c1ccc(OC(F)F)cc1)CC2", "note": "[Example 166, N-(2-aminophenyl)-5-{[4-(difluoromethoxy)phenyl]sulfonyl}-4,5,6,7-tetrahydro[1,3]thiazolo[5,4-c]pyridine-2-carboxamide]", "IC50": "≥ 0.2"},
      {"smiles": "CC(C)S(=O)(=O)N1CCc2nc(C(=O)Nc3ccccc3N)sc2C1", "note": "[Example 164, N-(2-aminophenyl)-5-(isopropylsulfonyl)-4,5,6,7-tetrahydro[1,3]thiazolo[5,4-c]pyridine-2-carboxamide]", "IC50": "≥ 0.2"},
      {"smiles": "COc1cccc(OCC(=O)N2CCc3nc(C(=O)Nc4ccccc4N)sc3C2)c1", "note": "[Example 179, N-(2-aminophenyl)-5-[(3-methoxyphenoxy)acetyl]-4,5,6,7-tetrahydro[1,3]-thiazolo[5,4-c]pyridine-2-carboxamide]", "IC50": "≥ 0.2"},
      {"smiles": "Nc1ccccc1NC(=O)c1nc2c(s1)CN(C(=O)NC1CCC(c3cccnc3)CC1)CC2", "note": "(centres unmarked) [Example 41, N^2-(2-aminophenyl)-N^5-(4-pyridin-3-ylcyclohexyl)-6,7-dihydro[1,3]thiazolo[5,4-c]pyridine-2,5(4H)-dicarboxamide]", "IC50": "≥ 0.2"},
      {"smiles": "COc1ccc(N(C)C(=O)N2CCc3nc(C(=O)Nc4ccccc4N)sc3C2)cc1OC", "note": "[Example 24, N^2-(2-aminophenyl)-N^5-(3,4-dimethoxyphenyl)-N^5-methyl-6,7-dihydro[1,3]-thiazolo[5,4-c]pyridine-2,5(4H)-dicarboxamide]", "IC50": "≥ 0.2"},
      {"smiles": "CCCCNC(=S)N1CCc2nc(C(=O)Nc3ccccc3N)sc2C1", "note": "[Example 105]", "IC50": "≥ 0.2"},
      {"smiles": "COc1ccc(NC(=C[N+](=O)[O-])N2CCc3nc(C(=O)Nc4ccccc4N)sc3C2)cc1", "note": "[Example 137, N-(2-aminophenyl)-5-{1-[(4-methoxyphenyl)amino]-2-nitroyinyl}-4,5,6,7-tetrahydro[1,3]thiazolo[5,4-c]pyridine-2-carboxamide]", "IC50": "≥ 0.2"},
      {"smiles": "CN(C)c1cccc(C(=O)N2CCc3nc(C(=O)Nc4ccccc4N)sc3C2)c1", "note": "[Example 97, N-(2-aminophenyl)-5-[3-(dimethylamino)benzoyl]-4,5,6,7-tetrahydro[1,3]thiazolo[5,4-c]pyridine-2-carboxamide]", "IC50": "≥ 0.2"},
      {"smiles": "Nc1ccccc1NC(=O)c1nc2c(s1)CN(C(=O)Nc1ccc(N3CCOCC3)nc1)CC2", "note": "[Example 34, N^2-(2-aminophenyl)-N^5-(6-morpholin-4-ylpyridin-3-yl)-6,7-dihydro[1,3]thiazolo[5,4-c]pyridine-2,5(4H)-dicarboxamide]", "IC50": "≥ 0.2"},
      {"smiles": "CC(=O)Nc1nc(C)c(S(=O)(=O)N2CCc3nc(C(=O)Nc4ccccc4N)sc3C2)s1", "note": "[Example 159, 5-[(2-acetamido-4-methyl-1,3-thiazol-5-yl)sulfonyl]-N-(2-aminophenyl)-4,5,6,7-tetrahydro[1,3]thiazolo[5,4-c]pyridine-2-carboxamide]", "IC50": "≥ 0.2"},
      {"smiles": "COc1ccc(NC(=N)N2CCc3nc(C(=O)Nc4ccccc4N)sc3C2)cc1", "note": "[Example 111, N-(2-aminophenyl)-5-{imino[(4-methoxyphenyl)amino]methyl}-4,5,6,7-tetrahydro[1,3]thiazolo[5,4-c]pyridine-2-carboxamide]", "IC50": "≥ 0.2"},
      {"smiles": "COc1ccc(NC(=C[N+](=O)[O-])N2CCc3nc(C(=O)Nc4ccccc4N)sc3C2)cc1OC", "note": "[Example 141, N-(2-aminophenyl)-5-{1-[(3,4-dimethoxyphenyl)amino]-2-nitrovinyl}-4,5,6,7-tetrahydro[1,3]thiazolo[5,4-c]pyridine-2-carboxamide]", "IC50": "≥ 0.2"},
      {"smiles": "COc1ccc(NC(=S)N2CCc3nc(C(=O)Nc4cc(C(C)C)ccc4N)sc3C2)cc1", "note": "[Example 110, N-(2-amino-5-isopropylphenyl)-5-{[(4-methoxyphenyl)amino]carbonothioyl}-4,5,6,7-tetrahydro[1,3]thiazolo[5,4-c]pyridine-2-carboxamide]", "IC50": "≥ 0.2"},
      {"smiles": "Nc1ccccc1NC(=O)c1nc2c(s1)CN(C(=O)Nc1ccccc1OC(F)(F)F)CC2", "note": "[Example 8, N^2-(2-aminophenyl)-N5-[2-(trifluoromethoxy)phenyl]-6,7-dihydro[1,3]thiazolo[5,4-c]pyridine-2,5(4H)-dicarboxamide]", "IC50": "≥ 0.2"},
      {"smiles": "COc1ccc(OCC(=O)N2CCc3nc(C(=O)Nc4cc(C(C)C)ccc4N)sc3C2)cc1", "note": "[Example 178, N-(2-amino-5-isopropylphenyl)-5-[(4-methoxyphenoxy)acetyl]-4,5,6,7-tetrahydro[1,3]thiazolo[5,4-c]pyridine-2-carboxamide]", "IC50": "≥ 0.2"},
      {"smiles": "Cc1ccc(C(=O)N2CCc3nc(C(=O)Nc4ccccc4N)sc3C2)cc1", "note": "[Example 89, N-(2-aminophenyl)-5-(4-methylbenzoyl)-4,5,6,7-tetrahydro[1,3]thiazolo[5,4-c]pyridine-2-carboxamide]", "IC50": "≥ 0.2"},
      {"smiles": "Nc1ccccc1NC(=O)c1nc2c(s1)CN(C(=O)NC1CCNCC1)CC2", "note": "[Example 42, N^2-(2-aminophenyl)-N^5-piperidin-4-yl-6,7-dihydro[1,3]thiazolo[5,4-c]pyridine-2,5(4H)-dicarboxamide]", "IC50": "≥ 0.2"},
      {"smiles": "COc1ccc(NC(=O)C(=O)N2CCc3nc(C(=O)Nc4ccccc4N)sc3C2)cc1", "note": "[Example 65, N-(2-aminophenyl)-5-{[(4-methoxyphenyl)amino](oxo)acetyl}-4,5,6,7-tetrahydro[1,3]thiazolo[5,4-c]pyridine-2-carboxamide]", "IC50": "≥ 0.2"},
      {"smiles": "COc1ccc(N)c(NC(=O)c2nc3c(s2)CN(C(C)=Nc2ccc(OC)c(OC)c2)CC3)c1", "note": "[Example 131, N-(2-amino-5-methoxyphenyl)-5-[N-(3,4-dimethoxyphenyl)ethanimidoyl]-4,5,6,7-tetrahydro[1,3]thiazolo[5,4-c]pyridine-2-carboxamide]", "IC50": "≥ 0.2"},
      {"smiles": "CCCOC(=O)c1ccc(OC(=O)N2CCc3nc(C(=O)Nc4ccccc4N)sc3C2)cc1", "note": "[Example 184, 4-(propoxycarbonyl)phenyl 2-[(2-aminophenyl)carbamoyl]-6,7-dihydro[1,3]thiazolo[5,4-c]pyridine-5(4H)-carboxylate]", "IC50": "≥ 0.2"}
    ]}
  ]
}
